# Paper PMC6038383, “Crystal structure of the spliceosomal DEAH-box ATPase Prp2” (Acta Crystallographica. Section D, Structural Biology, 2018)
# Target: T1, Prp2 from C. thermophilum (ctPrp2), residues 270-921 (Thermochaetoides thermophila, UniProt G0SEG4)
# T1 construct: gene CTHT_0063660; N-terminally truncated residues 270-921, GST tag cleaved with PreScission protease, expressed in E. coli Rosetta 2 (DE3)
# T1 sequence (G0SEG4 270-921): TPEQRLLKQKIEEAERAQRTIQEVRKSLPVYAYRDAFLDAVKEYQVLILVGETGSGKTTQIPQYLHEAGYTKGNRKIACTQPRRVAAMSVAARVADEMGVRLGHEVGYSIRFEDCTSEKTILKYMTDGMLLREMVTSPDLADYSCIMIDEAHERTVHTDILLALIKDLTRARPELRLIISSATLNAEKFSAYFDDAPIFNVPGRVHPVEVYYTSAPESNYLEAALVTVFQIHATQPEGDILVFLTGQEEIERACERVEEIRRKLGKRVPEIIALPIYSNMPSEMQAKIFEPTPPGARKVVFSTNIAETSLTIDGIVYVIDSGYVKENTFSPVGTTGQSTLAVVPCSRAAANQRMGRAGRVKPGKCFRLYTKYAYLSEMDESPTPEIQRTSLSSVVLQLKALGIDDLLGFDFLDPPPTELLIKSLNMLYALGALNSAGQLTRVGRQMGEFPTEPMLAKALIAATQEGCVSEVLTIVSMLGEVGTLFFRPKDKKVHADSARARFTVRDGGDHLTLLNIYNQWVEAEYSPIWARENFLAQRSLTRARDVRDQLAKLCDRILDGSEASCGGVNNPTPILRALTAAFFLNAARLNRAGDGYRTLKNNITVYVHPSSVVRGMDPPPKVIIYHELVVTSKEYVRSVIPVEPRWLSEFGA
# Assay: isothermal titration calorimetry
# Type: binding
structure (smiles),measurement,value
Nc1ncnc2c1ncn2[C@@H]1O[C@H](COP(=O)(O)OP(=O)(O)O)[C@@H](O)[C@H]1O [ADP],Kd,179 nM
